The record followed here is EP4700025A1, “AMIDE COMPOUND, PHARMACEUTICAL COMPOSITION COMPRISING SAME, AND USE THEREOF” (Suzhou Genhouse Bio Co., Ltd., priority 2023, dated 2024).

The test system of data set [1] is SDMA. Put plainly: SDMA Inhibition Assay in HCT-116-MTAP^-/- cells. The conditions noted are these: Homo sapiens, 96 hours. In kind it is cell-based. As to the method: (§1) The next day, the cells were treated with the compounds at different concentrations (with an initial concentration of 10 µM, 5-fold dilution, 9 concentration gradients). After 96 hours, the culture medium was pipetted out and the cells were washed 2 times with 100 µL of PBS. The cells were then fixed with 4% paraformaldehyde and incubated at room temperature for 20 min. The fixative solution was discarded, and the cells were washed with PBS. 150 µL of specialized blocking solution (containing 1% Triton-100) was added to each well for blocking at room temperature for 2 hours, and the plate was washed with PBS to remove excess blocking solution. […] The cells were incubated at 4 °C overnight. The next day, the cells were separately washed 2 times with 1× PBST. […] The cells were incubated at room temperature for 2 hours. The cells were washed 2 times with 1× PBST and 1 time with PBS. Fluorescence signals at 700 nm and 800 nm were separately detected using a Li-COR Odyssey two-color near-infrared laser imager. The inhibition rates were calculated, and the EC50 values were determined by fitting using the GraphPad Prism 7.0 software. Table 3. Inhibition of SDMA by test compounds

Data set [2] deals with SDMA. Put plainly: SDMA Inhibition Assay in A549 cells. In kind it is cell-based. The conditions noted are these: Homo sapiens, A549, 96 hours. As to the method: as §1
The next data set has as its system HCT-116. As to the kind of experiment: CCK8 proliferation inhibition, HCT-116. The format is cell-based. The conditions noted are these: Homo sapiens, 192 h, CCK8, 8 days after drug treatment. As to the method:
(§2) The above normally growing cells were digested with a cell trypsinization solution, centrifuged, counted, and seeded into a 96-well plate at an appropriate cell density (2000 cells/well) at 100 µL/well. The next day after cell seeding, the compounds at different concentrations were added to the wells. Three replicate wells were set for each concentration point, and a corresponding DMSO negative control group was also set. CCK8 solution was added to each well 8 days after drug treatment. The plate was incubated at 37 °C for a period of time (OD450 of the vehicle group reached 1.0 or higher) before the absorbance at 450 nm was read using a microplate reader. The inhibition rates were calculated, and the EC50 values were determined by fitting using the GraphPad Prism 7.0 software. Table 2. EC50 values of compounds at cellular level

Data set [3] has as its system SDMA. Put plainly: SDMA Inhibition Assay in HCT-116 cells. The format is cell-based. Conditions: Homo sapiens, HCT-116, 96 hours. As to the method:
as §1

A further data set deals with HCT-116-MTAP^-/-. Put plainly: CCK8 proliferation inhibition, HCT-116-MTAP^-/-. In kind it is cell-based. The conditions noted are these: Homo sapiens, 192 h; HCT-116-MTAP^-/- (MTAP-deficient); CCK8, 8 days after drug treatment. As for the experimental part: as §2
Data set [4] is described as follows: Pharmacokinetic assay in mice. In kind it is in vivo, Balb/c mice. Conditions: mouse; for MRT inf: read-out: MRT(0-∞). As for the experimental part: Eighteen male Balb/c mice aged 6 to 8 weeks were randomly divided into 2 groups (IV group and PO group). The corresponding compounds were administered to the animals in the IV group by tail intravenous injection at 2 mg/kg, and the corresponding compounds were administered to the animals in the PO group by oral gavage at 10 mg/kg or 100 mg/kg. The animals in the IV group were allowed free access to food and water, and the animals in the PO group were fasted overnight before administration and were fed 4 h after administration. Throughout the experiment, the animals were allowed free access to water. Plasma samples were separately collected at 0.083 h (only group IV), 0.25 h, 0.5 h, 1 h, 2 h, 4 h, 8 h, and 24 h after administration. About 100 µL of blood was collected from the orbit of the animal, placed into a 1.5 mL anticoagulation centrifuge tube, and centrifuged at 8000 rpm and 4 °C for 10 min. The upper plasma sample was transferred to an EP tube. The plasma samples were stored in a refrigerator at -80 °C until sample analysis. Pharmacokinetic parameters of the drug were calculated based on the drug concentration-time data, including the peak concentration Cmax, peak time Tmax, clearance rate CL, steady state apparent volume of distribution Vss, area under drug-time curve AUC, elimination half-life t1/2, bioavailability, and the like. Data below the 80% lower limit of quantification were excluded from the calculation of pharmacokinetic parameters.

Setting [5] is: male, Balb/c, plasma, 2 mg/kg, IV 2mpk.
Where [6] appears, read: male, Balb/c, plasma, 10 mg/kg, PO 10mpk.

Like-named read-outs stand apart in the source and are kept apart here.

As usually defined, the EC50 is the concentration giving half of the maximal effect. A low value points to higher potency in that assay. `Cn1ncc2c(N)nc3ccc(C(=O)N4CCOCC4c4ccc5c(c4)OC(F)(F)O5)cc3c21` (centres unmarked) [Example I-4]: the EC50 was 7.4 nM in the data set on SDMA [1]; 7 nM with SDMA [2]; above 10000 nM in the data set on HCT-116; 381 nM with SDMA [3]; 27 nM in the data set with HCT-116-MTAP^-/-.

Regarding `CN(Cc1ccc2cnn(C)c2c1)C(=O)c1cc2c(cc1F)nc(N)c1cnn(C)c12` [Example I-19], the EC50 in the data set with SDMA [1] is 6.6 nM; in the data set with SDMA [2], 7.2 nM; in the data set with HCT-116 it was above 10000 nM; in the data set on SDMA [3], 828 nM; with HCT-116-MTAP^-/- it was 48.2 nM.

One may read the AUC(0-inf) as the area under the concentration-time curve extrapolated to infinity. Lower therefore signals low exposure. Broadly, the AUC(0-t) is the area under the concentration-time curve up to a stated or last time point. A word on the Cmax: it is the highest concentration seen after dosing. In general, Tmax refers to the time at which the peak concentration occurs. Molecule `CCN(Cc1ccc2c(c1)OC(F)(F)O2)C(=O)c1ccc2nc(N)c3cnn(C)c3c2c1` [Example I-5] showed a 50% effective concentration (EC50) in the data set on SDMA [1] of 2.1 nM. The molecule also displayed a concentration giving a half-maximal response (EC50) with SDMA [2] of 2.6 nM. Further, the half-maximal effective concentration (EC50) in the data set on HCT-116 came to 2360 nM. Moreover, in the data set on SDMA [3], the EC50 was 200 nM. Also, the EC50 with HCT-116-MTAP^-/- came out at 4.7 nM. Also, in data set [4] (setting [5]), the AUC(0-inf) was found to be 3.62 µM·h, the AUC(0-t) worked out at 3.32 µM·h, the C0 was determined as 1.86 µM and the MRT inf was determined as 2.9 h. In addition, in data set [4] (male, Balb/c, plasma, 2 mg/kg, IV 2mpk, read-out: Vz), the Vd came to 4.4 L/kg. Besides, in data set [4] (setting [6]), the AUC(0-inf) was found to be 12.4 µM·h, the AUC(0-t) amounted to 12.4 µM·h, the concentration peaked (Cmax) at 1.93 µM and the Tmax amounted to 1 h. Moreover, in data set [4] (setting [6]), the MRT inf worked out at 4.8 h. For the same molecule, in data set [4] (IV 2mpk), the CLz was found to be 21.7 mL/min/kg, the “R_AUC(t/∞)” value worked out at 91.7% and the t1/2z is listed as 2.4 h. For the same molecule, in data set [4] (PO 10mpk), the “R_AUC(t/∞)” value came to 99.9% and the t1/2z was 2.4 h. Moreover, the F in data set [4] (PO 10mpk vs IV 2mpk) was 68.6%.

As to `Nc1nc2cnc(C(=O)N3CCOC[C@@H]3c3ccc4c(c3)OC(F)(F)O4)cc2c2c1COC2` [Example I-109], the EC50 in the data set with SDMA [1] came out at 15 nM; in the data set with SDMA [2], 2.8 nM; in the data set on HCT-116, 4850 nM; in the data set with SDMA [3] it was 938 nM; with HCT-116-MTAP^-/-, 19.2 nM. For the same molecule, the AUC(0-t) in data set [4] (plasma, 2 mg/kg, IV 2mpk) stood at 13.4 µM·h; in data set [4] (plasma, 10 mg/kg, PO 10mpk), 44.1 µM·h. This molecule also registered a Cmax in data set [4] (plasma, 10 mg/kg, PO 10mpk) of 14.7 µM.

In the case of `Cn1ncc2c(N)nc3cnc(C(=O)N4CCN(C5(C)CC5)CC4c4ccc5c(c4)OC(F)(F)O5)cc3c21` (racemic) [Example I-113], the EC50 is 4.1 nM with SDMA [1], above 10000 nM with HCT-116, 403 nM with SDMA [3] and 50.5 nM in the data set with HCT-116-MTAP^-/-.

Regarding `Cn1ncc2c(N)nc3cnc(C(=O)N4CC5(CC5)OCC4c4ccc5c(c4)OC(F)(F)O5)cc3c21` (centres unmarked) [Example I-110], the EC50 in the data set with SDMA [1] is 36 nM; with SDMA [2] it was 19 nM; in the data set on SDMA [3], above 1000 nM.

With `CC1OCc2c1c(N)nc1cc(F)c(C(=O)N(Cc3ccc4c(c3)OC(F)(F)O4)C3CC3)cc21` (racemic) [Example I-36], the EC50 in the data set on HCT-116 is above 10000 nM; with HCT-116-MTAP^-/-, 24.2 nM.

As to `Cn1ncc2c(N)nc3cc(F)c(C(=O)N4CCOCC4c4ccc5c(c4)OC(F)(F)O5)cc3c21` (centres unmarked) [Example I-3], the EC50 in the data set on SDMA [1] is 0.6 nM; in the data set on SDMA [2], 2.1 nM; in the data set with HCT-116, 2370 nM; with SDMA [3], 101 nM; with HCT-116-MTAP^-/- it was 8.4 nM.

Turning to `CN(Cc1ccc2c(cnn2C)c1)C(=O)c1cc2c(cc1F)nc(N)c1cnn(C)c12` [Example I-18], the EC50 worked out at 3.1 nM in the data set on SDMA [1]; 3.1 nM with SDMA [2]; 3440 nM in the data set on HCT-116; 1020 nM in the data set with SDMA [3]; 18.3 nM with HCT-116-MTAP^-/-.

Regarding `Nc1nc2cnc(C(=O)N3CCOC[C@@H]3c3ccc(C(F)(F)F)cc3)cc2c2c1COC2` [Control compound B, reference compound], the AUC(0-t) was found to be 6.9 µM·h in data set [4] (setting [5]) and 26.5 µM·h in data set [4] (setting [6]). Moreover, the peak level in data set [4] (setting [6]) (Cmax) was 5.76 µM.

Regarding `CN(Cc1ccc2nn(C)cc2c1)C(=O)c1cc2c(cc1F)nc(N)c1cnn(C)c12` [Example I-20], the EC50 in the data set with SDMA [1] is 5.5 nM; with SDMA [2] it was 9.2 nM; in the data set with HCT-116, above 10000 nM; with SDMA [3], 862 nM; in the data set with HCT-116-MTAP^-/- it was 16.1 nM.

On to `Cn1ncc2c(N)nc3ccc(C(=O)N4CCOCC4c4ccc5c(c4)OC(F)(F)O5)cc3c21` (single isomer, unassigned) [I-4 (PEAK1)], for which the EC50 with SDMA [1] worked out at 9.1 nM; in the data set on SDMA [2], 6.1 nM; in the data set on HCT-116, 6410 nM; with SDMA [3] it was 906 nM; with HCT-116-MTAP^-/- it was 47.7 nM.

Consider `Cn1ncc2c(N)nc3ccc(C(=O)N(Cc4ccc5c(c4)OC(F)(F)O5)C4CC4)cc3c21` [Example I-15], for which the EC50 in the data set on SDMA [1] came out at 10.3 nM; in the data set on SDMA [2], 7.6 nM; in the data set on HCT-116, 5760 nM; with SDMA [3], 628 nM; in the data set with HCT-116-MTAP^-/-, 34 nM.

On to `Cn1ncc2c(N)nc3cc(F)c(C(=O)N(CCN4CCOCC4)Cc4ccc5c(c4)OC(F)(F)O5)cc3c21` [Example I-21], for which the EC50 was found to be 3 nM in the data set on SDMA [1]; 1.9 nM with SDMA [2]; 2610 nM in the data set on HCT-116; 292 nM in the data set with SDMA [3]; 22 nM in the data set on HCT-116-MTAP^-/-.

On to `CN1CCN(CCN(Cc2ccc3c(c2)OC(F)(F)O3)C(=O)c2cc3c(cc2F)nc(N)c2cnn(C)c23)CC1` [Example I-31], for which the EC50 in the data set with SDMA [1] is 8.7 nM; with SDMA [2], 6.7 nM; in the data set with HCT-116 it was 2710 nM; with SDMA [3], 1120 nM; in the data set on HCT-116-MTAP^-/-, 35.8 nM.
